Experimental data taken from article PMC5106240 (Drug Design, Development and Therapy, 2016).

Tests used:
Assay type in all cases: in vivo, Wistar rats
MES-induced convulsions = assay: MES-induced seizure model; settings: rats, 10 mg/kg IP, vs saline-treated group
PTZ-induced convulsions = assay: PTZ-induced seizure model; settings: rats
STR-induced convulsions = assay: STR-induced seizure model; settings: rats, 10, 20, 30 minutes observation
[1] = 10 mg/kg IP, 30 minutes before PTZ 60 mg/kg IP, 10, 20, 30 minutes observation

| Compound | Protective effect on MES-induced convulsions (duration of THLE) (MES-induced convulsions) | Protective effect on PTZ-induced convulsions (convulsion score) (PTZ-induced convulsions; [1]) | Protective effect on PTZ-induced convulsions (convulsion score) (PTZ-induced convulsions; 10 and 15 mg/kg IP, 10, 20, 30 minutes) | Protective effect on PTZ-induced convulsions (convulsion score) (PTZ-induced convulsions; 100 mg/kg IP, 10, 20, 30 minutes observation) | Protective effect on STR-induced convulsions (convulsion score) (STR-induced convulsions; 300 mg/kg IP) | Protective effect on STR-induced convulsions (convulsion score) (STR-induced convulsions; 10 mg/kg IP, 30 minutes before STR 3.5 mg/kg IP) |
| --- | --- | --- | --- | --- | --- | --- |
| C[C@@H](N)Cc1cnc[nH]1 [RAMH, R-(α)-methyl-histamine] | did not affect MES-induced seizures | did not affect convulsion score | – | – | – | – |
| O=C1NC(=O)C(c2ccccc2)(c2ccc(OCCCN3CCCCC3)cc2)N1 (centres unmarked) [Compound 6, 5-Phenyl-5-(4-(3-(piperidin-1-yl)propoxy)phenyl) imidazolidine-2,4-dione] | failed to provide significant protection | full protection | significant and full protective effect | – | – | – |
| CCCC(CCC)C(=O)O [VPA, valproic acid] | – | – | – | significant protection | significant protection | – |
| Clc1ccc(CCCOCCCN2CCCCC2)cc1 [PIT, pitolisant] | moderately protected | failed to provide protection | – | – | – | failed to provide protection |
| O=C1NC(=O)C(c2ccccc2)(c2ccccc2)N1 [PHT, Phenytoin] | fully | – | – | – | – | – |
